This is an account of results in patent US20080175935A1, “Method to Treat Skin Conditions with Narcissus Tazetta Bulb Extract” (NuSkin International, Inc., priority 2004, published 2008).

The subject of data set [1] is arNOX. The data set can be described thus: arNOX assay: ferricytochrome c reduction (superoxide production) in sera. The data set is classed as biochemical, human. The conditions noted are these: for serum activity (cytochrome c reduction) in response to added reagent: sera of aged individuals; for oscillating activity in sera of aged individuals: FIG. 2G (SOD), FIG. 2H (coenzyme Q); for amount at which inhibition of age-related cytochrome c reduction reaches a plateau: sera; for further inhibition of ferric cytochrome c reduction when added after maximal inhibition by the other agent: serum, SOD 30 units and coenzyme Q 450 μg added sequentially, 300 sec; for inhibition of ferric cytochrome c reduction activity: untreated serum samples; for Inhibition by superoxide dismutase: sera from aged individuals; for Superoxide production (reduction of ferricytochrome c), with superoxide dismutase: sera of aged (80-98 y) individuals, n = 10. From the text:
Reduction of ferric cytochrome c by superoxide was employed as a standard measure of superoxide formation (Mayo, L. A. and Cumutte, J. (1990) Meth. Enzyme. 186, 567-575. 7. Butler, J, Koppenol, W. H. and Margollash, E. (1982) J. Biol. Chem. 257, 10747).
Assays of ferric cytochrome c reduction in sera compared 53 samples from young (20 to 40 y) and 65 samples from aged (80 to 100) individuals. […]
(§1) Measurement of arNOX activity based on ferricytochrome c reduction as a measure of superoxide production were taken. The rate of reduction of ferricytochrome c was determined from the increase in absorbance at 550 nm with 540 nm as reference. This is a widely accepted method when coupled to superoxide dismutase inhibition for the measurement of superoxide generation. The assay consists of 150 μl (2 mg/ml) of oxidized ferricytochrome c solution and 150 μl serum or 40 μl buffy coats in PBSG buffer (8.06 g NaCl, 0.2 g KCl, 0.18 g Na2HPO4, 0.26 g KH2PO4, 0.13 g CaCl2, 0.1 g MgCl2, 1.35 g glucose dissolved in 1000 ml deionized water, adjusted to pH 7.4, filtered and stored at 4° C.). Rates were determined using a SLM Aminco DW-2000 spectrophotometer (Milton Roy, Rochester, N.Y., USA) in the dual wave length mode of operation with continuous measurements over 1 min every 1.5 min. After 45 min, test compound was added and the reaction was continued for 45 min. A millimolar extinction coefficient of 19.1 cm^−1 was used for reduced ferricytochrome c. (D. M. Morré, F. Guo and D. J. Morré, 2003, Mol. Cell. Biochem. 254: […]).

For data set [2], the system named is arNOX. The experiment in a line: arNOX assay: ferricytochrome c reduction (superoxide production) by buffy coats. In kind it is cell-based, human. Particulars: for arNOX inhibition, activity at a dilution of 1:50: dilution 1:50 (solids 2 mM), buffy coats from a person; for arNOX inhibition, activity at a dilution of 1:500: dilution 1:500; for arNOX inhibition, activity at a dilution of 1:500 / Rate of reduction of ferricytochrome c, +100 μM Q10: buffy coats; for oscillating activity of buffy coats and sera of aged individuals: FIG. 2, SOD 60 units or coenzyme Q 450 μg added after 45 min, 70-100 y; for Rate of reduction of ferricytochrome c, +100 μM Q10: mean ± SD, negative rates statistically zero. The procedure: Reduction of ferric cytochrome c by superoxide was employed as a standard measure of superoxide formation (Mayo, L. A. and Cumutte, J. (1990) Meth. Enzyme. 186, 567-575. 7. Butler, J, Koppenol, W. H. and Margollash, E. (1982) J. Biol. Chem. 257, 10747). If superoxide dismutase was added to remove the superoxide as it was generated, the reduction of ferric cytochrome c was prevented to confirm that ferric cytochrome c reduction in the assay was due to superoxide.
Buffy coats were pooled from aged individuals (70-100 y) and the reduction of ferric cytochrome c was observed (FIG. 2) with an oscillating activity. […] This oscillatory reduction of cytochrome c was absent from buffy coat fractions from younger (20-40 y) individuals (FIGS. 2A and 2B). […] The rate of coenzyme Q inhibited ferric cytochrome c reduction was 7-fold greater in buffy coat fractions of 90-94 y individuals as compared to 80-89 y individuals (Table 1). Buffy coats of less than 65 y individuals lacked the activity.
The compounds listed above in Table 4 were tested initially in the standard arNOX assay at a dilution of 1:50. Solids were prepared in water at an initial concentration of approximately 100 mM and then also tested at a dilution of 1:50, i.e., 2 mM. All compounds were evaluated using human buffy coats prepared from a person. Several compounds were evaluated with sera from aged patients as follow: IBR-DORMIN® Narcissus tazetta bulb extract (person), IBR-TOM® aqueous serum of tomato, available from Israeli Biotechnology Research Ltd. Corporation, Tel Aviv, Israel, (person), L-carnosine (person, person), L-ERGO® synthetically derived 1-ergothioneine, available from OXIS Health Products, Inc., Portland, Oreg. (person). Serum and buffy coats gave consistent results. Compounds active at 1:50 dilutions were reassayed with buffy coats at a dilution of 1:500 and compounds active at 1:500 were reassayed with buffy coats at a dilution of 1:5000.
Details of the assay protocol are as follow. Buffy coats, a mixture of lymphocytes and platelets, were obtained from a commercial supplier. The blood samples were maintained at 4° C. prior to collection and assay. Ca. 10^7 cells were added to each assay. Cell numbers were determined using a hemocytometer.
as §1

For data set [3], the system named is NADH cytochrome c reductase. The data set can be described thus: NADH cytochrome c reductase of pig liver microsomes. The data set is classed as biochemical. From the text:
(§2) However, the NADH-stimulated activity was about 4 nmoles/min/ml of sera for sera of both young and aged individuals. The aging-specific increment of ca. 2 nmoles/min/mg protein was observed both in the presence or absence of NADH.
For orientation: Liver microsomes are vesicles of endoplasmic reticulum, rich in cytochrome P450 enzymes.

For data set [4], the system named is NADH cytochrome c reductase. The data set can be described thus: NADH-cytochrome c reductase activity in serum. The data set is classed as biochemical, human. The conditions noted are these: serum of either young or aged individuals.
Source text: as §2

Entries after “also recorded” stand apart in the source; their conditions may differ.

As to `N[C@@H](CCC(=O)N[C@@H](CS)C(=O)NCC(=O)O)C(=O)O` [GSH], the “serum activity (cytochrome c reduction) in response to added reagent” value (from here on “serum activity (cytochrome c reduction)”) in the data set on arNOX [1] is “neither stimulates nor inhibits”.

Take `C[N+](C)(C)[C@@H](Cc1c[nH]c(=S)[nH]1)C(=O)[O-]` [L-Ergothioneine]: in the data set on arNOX [2], the “arNOX inhibition, activity at a dilution of 1:50” value is recorded as “mixed results” and the “arNOX inhibition, activity at a dilution of 1:500” value (“arNOX inhibition … of 1:500” below) was “inactive”.

For `NCCC(=O)N[C@@H](Cc1cnc[nH]1)C(=O)O` [L-carnosine, L-Carnosine], the “effect on the arNOX activities of a serum sample” value in the data set with arNOX [1] (one experiment, serum sample containing 3 arNOX activities) is “inhibited one arNOX, stimulated a second arNOX and was without effect on a third”.

For the compound `Cc1cc(-c2ccccc2)c2ccc3c(-c4ccccc4)cc(C)nc3c2n1` [bathocuproene], in the data set with arNOX [1], the “serum activity (cytochrome c reduction)” value is recorded as “unaffected”.

For the compound `Cc1cc(-c2ccc(S(=O)(=O)O)cc2)c2ccc3c(-c4ccc(S(=O)(=O)O)cc4)cc(C)nc3c2n1` [bathocuproenedisulforiate], the “serum activity (cytochrome c reduction)” value with arNOX [1] is listed as “unaffected”.

For `COc1cc(CNC(=O)CCCC/C=C/C(C)C)ccc1O` [capsaicin], the “response of arNOX to the drug” value in the data set on arNOX [1] is on record as “does not respond”.

Consider `COC1=C(OC)C(=O)C(C/C=C(\C)CC/C=C(\C)CC/C=C(\C)CC/C=C(\C)CC/C=C(\C)CC/C=C(\C)CC/C=C(\C)CC/C=C(\C)CC/C=C(\C)CCC=C(C)C)=C(C)C1=O` [coenzyme Q, ubiquinone-10], for which, in the data set with arNOX [1], the “oscillating activity in sera of aged individuals” value is given as “eliminated; also recorded: largely blocked” and the “further inhibition of ferric cytochrome c reduction when added after maximal inhibition by the other agent” value is “no further inhibition”. Moreover, the “amount at which inhibition of age-related cytochrome c reduction reaches a plateau” value with arNOX [1] (FIG. 4) is listed as “about 450 μg”. Further, in the data set on arNOX [1] (300 μg/ml), the “inhibition of ferric cytochrome c reduction activity” value was 40%. Further, the “activity of authentic NADH cytochrome c reductase of pig liver microsomes” value in data set [3] is recorded as “did not significantly inhibit”. Moreover, in data set [4], the “activity of NADH cytochrome c reductase in serum” value is “Neither SOD nor coenzyme Q inhibited”. In the data set with arNOX [2], the “oscillating activity of buffy coats and sera of aged individuals” value is reported as “reduced to basal levels”. Moreover, the “oscillating reduction of ferric cytochrome c” value in the data set on arNOX [2] (buffy coats pooled from aged individuals (70-100 y), 100 μM coenzyme Q (FIG. 2D)) is given as “inhibited completely”. Moreover, the EC50 in the data set with arNOX [2] (buffy coats pooled from aged individuals (70-100 y), read-out: EC50 for inhibition of oscillating reduction of ferric cytochrome c) is 20 µM. In addition, the “Rate of reduction of ferricytochrome c, +100 μM Q10” value in the data set with arNOX [2] (group 80-89 years) is on record as −0.03 ± 0.02 nmoles min^−1 10^7 cells^−1. The “Rate of reduction of ferricytochrome c, +100 μM Q10” value with arNOX [2] (group 90-94 years) is listed as −0.07 ± 0.07 nmoles min^−1 10^7 cells^−1.

With `[Cu]` [copper], the “serum activity (cytochrome c reduction)” value in the data set on arNOX [1] was “did not enhance the activity”.

As for `OO` [hydrogen peroxide], the “serum activity after oxidation of protein SH” value in the data set on arNOX [1] (dilute (0.01%) hydrogen peroxide followed by catalase) is “inactive”.

In the case of `COC(=O)c1ccc(O)cc1` [methylparaben, Methylparaben], the “effect on the two distinct arNOX activities of the buffy coats” value in the data set with arNOX [2] (buffy coats containing two distinct arNOX activities) is “inhibited one and had no effect on the other”. Also, in the data set on arNOX [2], the “arNOX inhibition, activity at a dilution of 1:50” value is “active” and the “arNOX inhibition … of 1:500” value was “inactive”.

For `O=C(O)c1cc[c]([Hg][Cl])cc1` [p-chloromercuribenzoate], the “serum activity (cytochrome c reduction)” value with arNOX [1] was “inhibited”.

For the compound `CCCOC(=O)c1ccc(O)cc1` [propylparaben, Propylparaben], in the data set on arNOX [2], the “arNOX inhibition, activity at a dilution of 1:50” value is “active” and the “arNOX inhibition … of 1:500” value was “inactive”.

On to (−)-epigallocatechin gallate, for which, in the data set with arNOX [1], the “response of arNOX to the drug” value is “does not respond”.

Regarding Catalase, the “serum activity (cytochrome c reduction)” value in the data set with arNOX [1] is on record as “without effect”.

With superoxide dismutase, the “oscillating activity in sera of aged individuals” value in the data set with arNOX [1] (listed as SOD) is “eliminated; also recorded: completely inhibited”. Moreover, the “Inhibition by superoxide dismutase” value with arNOX [1] (before proteinase K digestion) worked out at 40%; in the data set on arNOX [1] (following proteinase K digestion), 60%. The “Superoxide production (reduction of ferricytochrome c), with superoxide dismutase” value in the data set with arNOX [1] (after proteinase K) came to 0.22 ± 0.1 Nmoles/min/mi/sera; in the data set on arNOX [1] (no proteinase K), 0.42 ± 0.1 Nmoles/min/mi/sera. In addition, the “amount at which inhibition of age-related cytochrome c reduction reaches a plateau” value in the data set on arNOX [1] (FIG. 3) was 45 units. Further, in the data set on arNOX [1], the “further inhibition of ferric cytochrome c reduction when added after maximal inhibition by the other agent” value was “no further inhibition”. Moreover, in the data set with arNOX [1] (30 units/ml), the “inhibition of ferric cytochrome c reduction activity” value amounted to 40±10%. Besides, the “activity of NADH cytochrome c reductase in serum” value in data set [4] is recorded as “Neither SOD nor coenzyme Q inhibited”. For the same compound, the “oscillating activity of buffy coats and sera of aged individuals” value with arNOX [2] is reported as “reduced to basal levels”. The “oscillating reduction of ferric cytochrome c” value in the data set on arNOX [2] (buffy coats pooled from aged individuals (70-100 y), SOD added (FIG. 2C)) is given as “inhibited completely”.

What is called EC50 is the concentration at which the effect is half-maximal.
